Experimental data taken from ChEMBL document CHEMBL1201862, “PubChem BioAssay data set” (2004).
Calls of active or inactive are those of the source.

Tests used:
[1] = target: Glyceraldehyde-3-phosphate dehydrogenase (Homo sapiens, UniProt P04406)
[2] = target: Alkaline phosphatase, placental type (Homo sapiens, UniProt P05187); assay: PLAP enzyme inhibitors, confirmation, biochemical, luminescence (AID 1512); format: functional
[3] = target: T1, Alkaline phosphatase, tissue-nonspecific isozyme (Homo sapiens, UniProt P05186); assay: human TNAP enzyme inhibitors, SAR follow-up, biochemical, luminescent, dose response (AID 1056)
T1 sequence (P05186 whole entry): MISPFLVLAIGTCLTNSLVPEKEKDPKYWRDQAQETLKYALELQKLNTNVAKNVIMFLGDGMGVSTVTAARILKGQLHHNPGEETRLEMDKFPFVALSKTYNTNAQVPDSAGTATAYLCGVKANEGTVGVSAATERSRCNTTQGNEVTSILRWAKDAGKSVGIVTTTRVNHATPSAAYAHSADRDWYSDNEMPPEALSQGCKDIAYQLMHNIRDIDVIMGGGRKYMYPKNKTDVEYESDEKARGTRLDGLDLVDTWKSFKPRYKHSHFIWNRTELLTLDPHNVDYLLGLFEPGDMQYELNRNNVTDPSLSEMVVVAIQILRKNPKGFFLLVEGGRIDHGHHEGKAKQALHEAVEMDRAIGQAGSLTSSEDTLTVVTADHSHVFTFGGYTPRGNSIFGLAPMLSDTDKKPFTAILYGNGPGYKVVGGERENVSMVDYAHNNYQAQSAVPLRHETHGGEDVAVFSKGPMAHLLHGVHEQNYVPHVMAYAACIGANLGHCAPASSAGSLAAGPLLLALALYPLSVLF

[4] = target: T2, Neuropeptides B/W receptor type 1 (Homo sapiens, UniProt P48145); assay: Fluorescence-based dose response cell-based high throughput screening assay to identify antagonists of the G-protein coupled receptor 7 (GPR7). [Related pubchem assays: 1952 (Screening assay (GPR7 antagonists).), 1880 (Summary AID.)]; format: functional
T2 sequence (P48145 whole entry): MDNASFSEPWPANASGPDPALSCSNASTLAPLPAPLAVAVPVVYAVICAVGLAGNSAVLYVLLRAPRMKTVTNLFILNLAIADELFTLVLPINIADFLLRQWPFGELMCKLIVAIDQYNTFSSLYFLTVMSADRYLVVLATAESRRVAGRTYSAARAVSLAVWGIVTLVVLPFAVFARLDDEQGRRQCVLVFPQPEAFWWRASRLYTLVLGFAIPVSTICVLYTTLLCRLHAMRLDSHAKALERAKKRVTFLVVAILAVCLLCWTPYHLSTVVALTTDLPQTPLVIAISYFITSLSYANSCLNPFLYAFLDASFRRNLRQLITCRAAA

[5] = target: Melanin-concentrating hormone receptor 1 (Homo sapiens, UniProt Q99705); assay: Fluorescence-based counterscreen for antagonists of the G-protein coupled receptor 7 (GPR7): cell-based high throughput dose response assay to identify antagonists of the melanin-concentrating hormone receptor 1 (MCHR1).; format: functional
Melanin-concentrating hormone receptor 1, sequence (Q99705 whole entry): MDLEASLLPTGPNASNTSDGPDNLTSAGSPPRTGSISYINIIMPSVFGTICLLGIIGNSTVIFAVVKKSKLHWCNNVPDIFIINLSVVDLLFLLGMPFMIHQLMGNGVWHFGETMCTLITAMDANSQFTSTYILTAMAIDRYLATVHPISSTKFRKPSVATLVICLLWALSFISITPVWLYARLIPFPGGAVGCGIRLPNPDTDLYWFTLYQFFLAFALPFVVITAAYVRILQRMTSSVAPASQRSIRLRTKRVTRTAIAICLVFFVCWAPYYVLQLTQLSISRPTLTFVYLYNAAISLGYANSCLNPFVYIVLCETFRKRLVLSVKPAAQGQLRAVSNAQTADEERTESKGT

[6] = target: G-protein coupled receptor 55 (Homo sapiens, UniProt Q9Y2T6); assay: GPR55 agonists via beta-arrestin recruitment, primary screen, imaging, U2OS cells, beta-arrestin-GFP redistribution (AID 1961); format: functional
G-protein coupled receptor 55, sequence (Q9Y2T6 whole entry): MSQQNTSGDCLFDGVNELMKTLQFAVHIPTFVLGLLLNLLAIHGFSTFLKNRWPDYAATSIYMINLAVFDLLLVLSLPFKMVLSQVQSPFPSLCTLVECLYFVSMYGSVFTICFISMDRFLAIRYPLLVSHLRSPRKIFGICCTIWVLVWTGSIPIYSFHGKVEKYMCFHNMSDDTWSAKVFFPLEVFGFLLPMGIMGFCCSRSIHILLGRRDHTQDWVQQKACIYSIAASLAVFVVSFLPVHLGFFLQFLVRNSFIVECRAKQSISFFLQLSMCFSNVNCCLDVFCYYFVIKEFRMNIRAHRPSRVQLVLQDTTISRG

[7] = system: Streptococcus sp. 'group A'; assay: growth inhibition of control SK(-) GAS strain, dose response, counter-screen for streptokinase expression inhibitor project, luminescence, kanamycin, BacTiterGlo, confirmation (AID 1900); format: functional, organism-based
[8] = inhibitors of intracellular T. cruzi replication, confirmation, NIH3T3 host cells, beta-gal luminescence (AID 2044); format: functional, cell-based;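 note: intracellular parasites grown in NIH/3T3 mouse fibroblasts as host cells; luminescent beta-galactosidase reporter signal from transgenic T. cruzi replicating inside host cells; inhibitors lower the luminescence signal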
[9] = cytotoxicity toward NIH3T3 fibroblasts, dose response, counter-screen, cell-based, ATP luminescence, mouse fibroblasts (AID 2010); format: functional;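 note: cells exposed to compound for about 90 hours before reading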
[10] = system: Streptococcus; assay: Group A Streptococcus viability loss, dose response, counter-screen for streptokinase expression inhibitor project, luminescence, BacTiterGlo (AID 1915); format: functional, organism-based;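 note: potency for reduction of bacterial viability or growth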
[11] = Intein inhibitors as potential Tuberculosis drugs, a cytotoxicity screen. [Related pubchem assays (depositor defined):AID2221, AID2223, AID434968, AID435010, AID449749, AID449750, AID489010]; format: functional
[12] = system: INS1; assay: beta cell apoptosis inhibitors, cytokine rescue, dose response, luminescence, retest (AID 449756); format: functional, cell-based; settings: Rattus norvegicus;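 note: cell death triggered by IL-1 beta plus TNF-alpha plus IFN-gamma mixture; protective hits raise ATP signal compared with cytokine alone wells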
[13] = target: T3, Replicative DNA helicase DnaB (Mycobacterium tuberculosis, UniProt P9WMR3); assay: DnaB intein splicing inhibitors, dose response, biochemical, cell-free fluorescence (AID 449749); format: functional
T3 sequence (P9WMR3 whole entry): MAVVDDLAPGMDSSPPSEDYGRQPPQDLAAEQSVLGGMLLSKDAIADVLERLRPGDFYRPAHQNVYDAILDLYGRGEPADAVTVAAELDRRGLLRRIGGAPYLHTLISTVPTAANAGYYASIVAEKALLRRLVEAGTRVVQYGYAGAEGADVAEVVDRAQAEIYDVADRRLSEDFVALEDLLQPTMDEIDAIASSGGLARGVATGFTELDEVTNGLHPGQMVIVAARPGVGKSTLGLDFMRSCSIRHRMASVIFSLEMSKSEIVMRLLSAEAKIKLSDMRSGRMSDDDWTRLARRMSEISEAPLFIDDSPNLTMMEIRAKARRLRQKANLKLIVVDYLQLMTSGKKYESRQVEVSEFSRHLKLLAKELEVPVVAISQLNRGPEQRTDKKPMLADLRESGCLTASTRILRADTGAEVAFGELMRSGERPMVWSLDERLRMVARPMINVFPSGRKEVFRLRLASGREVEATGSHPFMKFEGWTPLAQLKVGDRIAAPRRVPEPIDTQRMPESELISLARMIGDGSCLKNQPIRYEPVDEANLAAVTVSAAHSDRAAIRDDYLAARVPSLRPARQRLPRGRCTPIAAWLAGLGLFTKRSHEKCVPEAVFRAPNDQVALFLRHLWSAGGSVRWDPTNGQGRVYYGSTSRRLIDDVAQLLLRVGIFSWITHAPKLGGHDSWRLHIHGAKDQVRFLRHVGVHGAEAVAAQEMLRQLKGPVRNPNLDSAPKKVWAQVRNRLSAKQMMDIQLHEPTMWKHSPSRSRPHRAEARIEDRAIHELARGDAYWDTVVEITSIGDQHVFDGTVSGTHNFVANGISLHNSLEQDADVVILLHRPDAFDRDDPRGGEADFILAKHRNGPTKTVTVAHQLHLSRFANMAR

[14] = target: Heat shock protein HSP 90-alpha (Homo sapiens, UniProt P07900); format: functional, organism-based
[15] = target: T4, Protein RecA (Mycobacterium tuberculosis, UniProt P9WHJ3); assay: Fluorescence Cell-Free Homogeneous Dose Retest to Identify Inhibitors of RecA-Intein Splicing Activity. [Related pubchem assays (depositor defined):AID2097, AID2223, AID489010, AID492950]; format: functional
T4 sequence (P9WHJ3 whole entry): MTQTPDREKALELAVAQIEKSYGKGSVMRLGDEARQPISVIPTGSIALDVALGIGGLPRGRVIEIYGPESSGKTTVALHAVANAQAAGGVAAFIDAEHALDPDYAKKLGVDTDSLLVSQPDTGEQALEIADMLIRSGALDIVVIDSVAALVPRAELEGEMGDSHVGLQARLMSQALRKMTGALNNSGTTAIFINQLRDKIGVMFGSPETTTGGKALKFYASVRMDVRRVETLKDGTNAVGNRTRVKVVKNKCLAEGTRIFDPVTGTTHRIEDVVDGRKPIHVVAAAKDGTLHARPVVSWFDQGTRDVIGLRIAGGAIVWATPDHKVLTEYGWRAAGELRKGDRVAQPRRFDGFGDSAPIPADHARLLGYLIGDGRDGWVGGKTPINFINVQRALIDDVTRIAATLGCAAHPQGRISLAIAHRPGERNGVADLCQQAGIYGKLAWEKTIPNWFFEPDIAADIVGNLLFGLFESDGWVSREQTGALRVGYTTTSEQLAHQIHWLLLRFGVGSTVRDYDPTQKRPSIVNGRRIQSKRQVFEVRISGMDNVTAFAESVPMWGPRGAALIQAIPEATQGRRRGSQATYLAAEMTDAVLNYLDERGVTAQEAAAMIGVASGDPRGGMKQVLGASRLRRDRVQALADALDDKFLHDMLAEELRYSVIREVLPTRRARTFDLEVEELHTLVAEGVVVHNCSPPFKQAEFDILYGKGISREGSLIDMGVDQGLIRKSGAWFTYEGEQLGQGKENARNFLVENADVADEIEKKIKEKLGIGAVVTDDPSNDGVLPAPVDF

[16] = target: T5, Tyrosine-protein phosphatase non-receptor type 7 (Homo sapiens, UniProt P35236); assay: redox-dependent HePTP inhibition, mechanism study, biochemical, fluorescence (AID 2068); format: functional
T5 sequence (P35236 whole entry): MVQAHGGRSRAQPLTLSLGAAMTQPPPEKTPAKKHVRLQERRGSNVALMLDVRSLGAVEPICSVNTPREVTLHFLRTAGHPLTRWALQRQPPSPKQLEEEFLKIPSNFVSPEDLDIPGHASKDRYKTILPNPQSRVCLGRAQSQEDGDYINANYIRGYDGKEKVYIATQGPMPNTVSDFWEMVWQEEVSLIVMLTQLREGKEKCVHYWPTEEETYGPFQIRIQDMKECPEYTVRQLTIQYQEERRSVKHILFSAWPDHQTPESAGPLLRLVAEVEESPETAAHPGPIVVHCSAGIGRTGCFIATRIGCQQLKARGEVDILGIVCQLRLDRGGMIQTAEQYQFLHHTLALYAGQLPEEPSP

[17] = target: T6, Dual specificity protein phosphatase 6 (Rattus norvegicus, UniProt Q64346); format: functional;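 note: confirmatory in vitro dose-response testing of MKP-3 inhibition; recombinant His-tagged MKP-3 made in E. coli BL21 with OMFP substrate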
T6 sequence (Q64346 whole entry): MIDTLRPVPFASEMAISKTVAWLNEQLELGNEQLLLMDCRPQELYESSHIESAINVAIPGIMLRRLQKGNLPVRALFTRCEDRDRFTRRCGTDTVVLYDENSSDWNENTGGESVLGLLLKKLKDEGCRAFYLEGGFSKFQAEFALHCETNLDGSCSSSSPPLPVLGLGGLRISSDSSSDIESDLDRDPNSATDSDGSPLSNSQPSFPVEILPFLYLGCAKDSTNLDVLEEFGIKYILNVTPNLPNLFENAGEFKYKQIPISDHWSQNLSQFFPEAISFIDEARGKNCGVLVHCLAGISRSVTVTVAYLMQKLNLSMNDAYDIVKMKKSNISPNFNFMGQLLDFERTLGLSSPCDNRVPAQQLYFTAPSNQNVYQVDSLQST

[18] = target: Hexokinase (Trypanosoma brucei, UniProt Q38C41); assay: Confirmation assay for inhibitors of Trypanosoma brucei hexokinase 1-Analogue-first series. [Related pubchem assays (depositor defined):AID1430, AID1632, AID2516, AID2560, AID2579, AID2600, AID449725, AID492951]; format: functional
Hexokinase, sequence (Q38C41 whole entry): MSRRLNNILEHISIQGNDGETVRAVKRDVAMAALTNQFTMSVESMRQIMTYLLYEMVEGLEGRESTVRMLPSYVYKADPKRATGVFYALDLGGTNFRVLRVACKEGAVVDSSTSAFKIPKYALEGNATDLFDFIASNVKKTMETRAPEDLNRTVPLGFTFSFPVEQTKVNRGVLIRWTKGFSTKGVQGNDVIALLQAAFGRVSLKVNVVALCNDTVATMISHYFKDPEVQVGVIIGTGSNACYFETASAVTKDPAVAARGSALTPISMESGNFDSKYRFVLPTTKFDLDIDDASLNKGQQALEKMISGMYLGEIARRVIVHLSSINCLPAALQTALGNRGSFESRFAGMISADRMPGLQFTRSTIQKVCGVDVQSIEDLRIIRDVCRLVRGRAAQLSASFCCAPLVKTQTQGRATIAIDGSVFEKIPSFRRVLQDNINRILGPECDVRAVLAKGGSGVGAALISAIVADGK

[19] = target: Mu-type opioid receptor (Homo sapiens, UniProt P35372); assay: SAR Analysis of Antagonists of the MOR Receptor using an Image-Based Assay - Set 3. [Related pubchem assays (depositor defined):AID1777, AID1785, AID1786, AID1966, AID2133, AID2136, AID2284, AID2285, AID2420]; format: functional
Mu-type opioid receptor, sequence (P35372 whole entry): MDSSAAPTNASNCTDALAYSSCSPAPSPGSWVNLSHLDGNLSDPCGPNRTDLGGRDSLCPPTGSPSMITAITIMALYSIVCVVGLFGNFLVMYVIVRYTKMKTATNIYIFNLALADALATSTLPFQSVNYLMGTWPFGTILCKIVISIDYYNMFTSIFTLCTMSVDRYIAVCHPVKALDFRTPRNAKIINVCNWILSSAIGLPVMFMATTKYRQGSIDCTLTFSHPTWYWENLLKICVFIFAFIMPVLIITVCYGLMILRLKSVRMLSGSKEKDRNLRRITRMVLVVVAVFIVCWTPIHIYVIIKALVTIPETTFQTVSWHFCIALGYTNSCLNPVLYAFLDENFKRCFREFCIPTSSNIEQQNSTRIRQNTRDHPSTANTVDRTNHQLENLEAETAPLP

[20] = target: T7, Kappa-type opioid receptor (Homo sapiens, UniProt P41145); assay: SAR analysis of small molecule antagonists of the kappa opioid receptor via a luminescent beta-arrestin assay - Set 4. [Related pubchem assays (depositor defined):AID1777, AID1778, AID1785, AID1786, AID1966, AID2133, AID2136, AID2285]; format: functional
T7 sequence (P41145 whole entry): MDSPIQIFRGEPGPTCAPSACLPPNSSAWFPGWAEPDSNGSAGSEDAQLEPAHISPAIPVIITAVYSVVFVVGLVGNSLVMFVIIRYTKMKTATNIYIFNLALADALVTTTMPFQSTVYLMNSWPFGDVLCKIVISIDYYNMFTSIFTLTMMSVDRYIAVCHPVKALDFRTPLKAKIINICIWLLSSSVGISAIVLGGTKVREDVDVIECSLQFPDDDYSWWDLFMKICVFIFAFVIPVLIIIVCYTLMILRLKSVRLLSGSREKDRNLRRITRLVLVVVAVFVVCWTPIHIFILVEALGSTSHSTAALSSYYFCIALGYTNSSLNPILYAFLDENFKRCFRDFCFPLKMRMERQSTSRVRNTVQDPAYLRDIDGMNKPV

[21] = target: Delta-type opioid receptor (Homo sapiens, UniProt P41143); assay: SAR Analysis of Antagonists of the DOR Receptor using an Image-Based Assay - Set 3. [Related pubchem assays (depositor defined):AID1777, AID1785]; format: functional;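 note: U2OS cells expressing DOR1 and beta-arrestin GFP stimulated with 100 nM SNC80; imaging of GFP-tagged beta-arrestin moving into spots after receptor activation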
Delta-type opioid receptor, sequence (P41143 whole entry): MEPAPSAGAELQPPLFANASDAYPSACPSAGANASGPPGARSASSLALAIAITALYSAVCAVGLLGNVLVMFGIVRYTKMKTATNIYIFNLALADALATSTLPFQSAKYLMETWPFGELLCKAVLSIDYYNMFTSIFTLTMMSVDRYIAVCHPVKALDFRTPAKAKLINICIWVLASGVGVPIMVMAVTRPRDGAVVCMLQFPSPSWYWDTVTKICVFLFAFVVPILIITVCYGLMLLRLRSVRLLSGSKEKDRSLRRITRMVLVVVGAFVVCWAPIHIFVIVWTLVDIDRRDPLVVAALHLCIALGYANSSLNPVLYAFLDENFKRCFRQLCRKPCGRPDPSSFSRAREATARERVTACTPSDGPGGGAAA

[22] = target: T7, Kappa-type opioid receptor; assay: SAR analysis of Antagonists of the Kappa Opioid Receptor (KOR) using an Image-Based Assay - Set 4. [Related pubchem assays (depositor defined):AID1777, AID1785]; format: functional
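Throughout, for CC50: cells exposed to compound for 72 hours before luminescence readout.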

Alkaline phosphatase, placental type, sequence (P05187 whole entry): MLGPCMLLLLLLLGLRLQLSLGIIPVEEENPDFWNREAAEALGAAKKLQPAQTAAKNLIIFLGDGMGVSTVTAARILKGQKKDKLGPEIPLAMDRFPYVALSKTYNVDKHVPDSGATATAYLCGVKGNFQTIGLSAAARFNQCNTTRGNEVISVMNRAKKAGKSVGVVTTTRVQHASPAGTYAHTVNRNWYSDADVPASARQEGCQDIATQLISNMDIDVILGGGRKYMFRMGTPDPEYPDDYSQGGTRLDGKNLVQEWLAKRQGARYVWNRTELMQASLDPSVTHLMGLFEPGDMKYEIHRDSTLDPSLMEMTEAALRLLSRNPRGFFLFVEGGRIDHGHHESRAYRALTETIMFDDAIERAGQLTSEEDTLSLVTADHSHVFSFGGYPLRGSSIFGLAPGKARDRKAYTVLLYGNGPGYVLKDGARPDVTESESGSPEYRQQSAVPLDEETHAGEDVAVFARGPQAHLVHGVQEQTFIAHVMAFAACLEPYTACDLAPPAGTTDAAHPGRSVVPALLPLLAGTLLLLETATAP
Glyceraldehyde-3-phosphate dehydrogenase, sequence (P04406 whole entry): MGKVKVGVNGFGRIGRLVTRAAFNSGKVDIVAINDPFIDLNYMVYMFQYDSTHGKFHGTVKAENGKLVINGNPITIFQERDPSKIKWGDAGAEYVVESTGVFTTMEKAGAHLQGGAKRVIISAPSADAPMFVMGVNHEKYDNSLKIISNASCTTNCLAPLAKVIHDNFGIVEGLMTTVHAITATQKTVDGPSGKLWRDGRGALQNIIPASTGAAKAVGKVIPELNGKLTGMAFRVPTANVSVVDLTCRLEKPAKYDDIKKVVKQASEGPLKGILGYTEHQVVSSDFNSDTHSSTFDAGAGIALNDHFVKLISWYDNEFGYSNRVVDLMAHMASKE

## O=[N+]([O-])c1ccc(-c2n[nH]c(-c3ccccc3)n2)cc1
[1]
  IC50: > 100 µM (not active)
[2]
  IC50: > 100 µM (inactive)
[3]
  IC50: > 100 µM (inactive)

## Cc1ccc(Cl)cc1N1CCN(C(=O)c2ccc3c(c2)CCN3S(C)(=O)=O)CC1
[4]
  IC50: 23.5 µM (not active)
[5]
  IC50: 16.9 µM (not active)
[6]
  EC50: 21 µM (inactive)

## O=C(NC(N=C(S)Nc1ccc(Cl)cc1Cl)C(Cl)(Cl)Cl)c1cccc([N+](=O)[O-])c1 (stereo not drawn)
[7]
  EC50: 1.37 µM (active)
[8]
  EC50: 1.14 µM (active)
[9]
  EC50: 8.05 µM (active)
[10]
  EC50: 4.8 µM (active)
[11]
  CC50: 11 µM (active)
[12]
  AC50: 6.08 µM (active)

## CC1(C)N=C(SCC(=O)Nc2ccc(Cl)cc2)C(c2ccc(Cl)cc2)=N1
[11]
  CC50: > 40 µM (active)
[13]
  AC50: 3.03 µM (active)
[14]
  AC50: 11.3 µM (active)
[15]
  EC50: 4.7 µM (active)

## COc1cc(C(=S)NC(C)(C)C)ccc1O
[16]
  IC50: 13.1 µM (active)
[17]
  IC50: > 100 µM (inactive)

## COc1cccc(CC(=O)Nc2cc(Cl)ccc2C(=O)O)c1
[18]
  IC50: > 25 µM (inactive)

## CCC(CC)NC(=S)c1ccc(O)c(OC)c1
[16]
  IC50: 0.766 µM (active)
[17]
  IC50: > 100 µM (inactive)

## O=C(Cn1cnnn1)c1ccc(O)c(O)c1
[2]
  IC50: 16.4 µM (active)
[3]
  IC50: > 100 µM (inactive)

## O=C(Cn1sc2ccccc2c1=O)Nc1ccccc1C(F)(F)F
[18]
  IC50: > 25 µM (inactive)

## CCC(C)c1ccc(S(=O)(=O)NCc2ccc(C(=O)NCCN(Cc3ccccc3)C(C)C)cc2)cc1 (stereo not drawn)
[19]
  IC50: > 32 µM (inactive)
[20]
  IC50: 1.6 µM (active)
[21]
  IC50: > 32 µM (inactive)
[22]
  IC50: 2.01 µM (active)
